Test results: ChEMBL document CHEMBL5614386, “Design, synthesis, and biological evaluation of novel 1-amido-2-one-4-thio-deoxypyranose as potential antitumor agents for multiple myeloma” (Bioorg Med Chem, 2024)
Active and inactive are the calls of the source. The calls are words filed in the database; no cut-off is given here.

Experiments:
NCI-H929 [1] = test: Antitumor activity against human NCI-H929 cells xenografted in BALB/C nude mouse model assessed as reduction in tumor growth at 50 mg/kg, sc administrated every other day for 13 days; format: functional, organism-based; details: time 13.0 day
NCI-H929 [2] = test: Antitumor activity against human NCI-H929 cells xenografted in BALB/c nude mouse assessed as Ki-67 activity in tumor by microscopy based analysis; format: functional, cell-based
[3] = Toxicity in BALB/c nude mouse xenografted with human NCI-H929 cells assessed as side effect at 50 mg/kg, sc administrated every other day for 13 days by H and E staining based light microscopic analysis; format: organism-based; details: in vivo, 312 h, time 13 day
[4] = Toxicity in BALB/c mouse assessed as histological change in heart at 50 mg/kg, sc administrated every other day for 13 days by H and E staining based light microscopic analysis; format: organism-based; details: in vivo, 312 h, time 13 day
NCI-H929 [5] = test: Anti-proliferative activity against human NCI-H929 cells assessed as cell growth inhibition incubated for 72 hrs by CCK-8 assay; details: NCI-H929, 72 h
ARP-1 = test: Anti-proliferative activity against human ARP-1 cells assessed as inhibition cell growth at 5 uM incubated for 72 hrs by CCK-8 assay; format: functional, cell-based
[6] = Toxicity in BALB/c mouse assessed as histological change in tumor at 50 mg/kg, sc administrated every other day for 13 days by H and E staining based light microscopic analysis; format: organism-based; details: in vivo, 312 h, time 13 day
[7] = Toxicity in BALB/c mouse assessed as histological change in liver at 50 mg/kg, sc administrated every other day for 13 days by H and E staining based light microscopic analysis; format: organism-based; details: in vivo, 312 h, time 13 day
[8] = Toxicity in BALB/c mouse assessed as histological change in kidney at 50 mg/kg, sc administrated every other day for 13 days by H and E staining based light microscopic analysis; format: organism-based; details: in vivo, 312 h, time 13 day
[9] = Toxicity in BALB/c nude mouse xenografted with human NCI-H929 cells assessed as drug tolerance at 50 mg/kg, sc administrated every other day for 13 days by H and E staining based light microscopic analysis; format: organism-based; details: in vivo, 312 h, time 13 day
[10] = Toxicity in BALB/c mouse xenografted with human NCI-H929 cells assessed as effect on body weight at 50 mg/kg, sc administrated every other day for 13 days; format: organism-based; details: in vivo, 312 h, time 13 day
[11] = Anti-proliferative activity against human ARP-1cells assessed as cell growth inhibition incubated for 72 hrs by CCK-8 assay; details: ARP-1, 72 h
NCI-H929 [12] = test: Induction of DNA damage in human NCI-H929 cells assessed as increase gamma-H2AX level at 10 to 20 uM incubated for 24 hrs by Western blot analysis; format: functional, cell-based; details: dose 10-20 µM
NCI-H929 [13] = test: Anti-proliferative activity against human NCI-H929 cells assessed as inhibition cell growth at 5 uM incubated for 72 hrs by CCK-8 assay; format: functional, cell-based

IC50 (NCI-H929 [5]): 1240 nM
Structure (SMILES): COc1ccc(SC2CC(=O)[C@H](NC(=O)c3ccc4c(c3)OCO4)O[C@@H]2COC(C)=O)cc1OC (some centres undefined)
Activity (NCI-H929 [1]): Active | Activity (NCI-H929 [2]): Active | Activity [3]: Non-Toxic | Activity [4]: Non-Toxic | Activity (ARP-1): Active | Activity [6]: Non-Toxic | Activity [7]: Non-Toxic | Activity [8]: Non-Toxic | Activity [9]: Non-Toxic | Activity [10]: Non-Toxic | IC50 [11]: 2070 nM | Activity (NCI-H929 [12]): Active | Activity (NCI-H929 [13]): Active
